In ChEMBL document CHEMBL1201862, “PubChem BioAssay data set” (2004):
Calls of active or inactive are those of the source.

How the values were obtained:
Genome polyprotein = Genome polyprotein (dengue virus type 2, UniProt P29990); assay: flavivirus cap methylation enzyme inhibition – biochemical, confirmation dose response, primary screen (AID 588689); assay type: functional
Cytochrome P450 2D6 = Cytochrome P450 2D6 (Homo sapiens, UniProt P10635);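 note: CYP2D6 member of a cytochrome P450 panel assay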
Cytochrome P450 3A4 = Cytochrome P450 3A4 (Homo sapiens, UniProt P08684);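 note: CYP3A4 tested as one member of a cytochrome P450 panel screen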
Cytochrome P450 2C9 = Cytochrome P450 2C9 (Homo sapiens, UniProt P11712)
Vero = assay: cells; assay type: functional; details: Chlorocebus sabaeus
[1] = viability of uninfected HEp-2 cells – cell-based, HTS, cytotoxicity control for RSV inhibitor project, dose response (AID 2410); assay type: functional; details: human respiratory syncytial virus
[2] = Trypanosoma cruzi growth suppression in host cells – NIH3T3 host cells, beta-gal luminescence, confirmation (AID 2044); assay type: functional, cell-based;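 note: intracellular parasites grown in NIH/3T3 mouse fibroblasts as host cells; luminescent beta-galactosidase reporter signal from transgenic T. cruzi replicating inside host cells; inhibitors lower the luminescence signal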
Cytochrome P450 1A2 = molecular target: T1, Cytochrome P450 1A2 (Homo sapiens, UniProt P05177);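 note: PubChem cytochrome P450 panel assay, CYP1A2 panel member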
T1 sequence (P05177 whole entry): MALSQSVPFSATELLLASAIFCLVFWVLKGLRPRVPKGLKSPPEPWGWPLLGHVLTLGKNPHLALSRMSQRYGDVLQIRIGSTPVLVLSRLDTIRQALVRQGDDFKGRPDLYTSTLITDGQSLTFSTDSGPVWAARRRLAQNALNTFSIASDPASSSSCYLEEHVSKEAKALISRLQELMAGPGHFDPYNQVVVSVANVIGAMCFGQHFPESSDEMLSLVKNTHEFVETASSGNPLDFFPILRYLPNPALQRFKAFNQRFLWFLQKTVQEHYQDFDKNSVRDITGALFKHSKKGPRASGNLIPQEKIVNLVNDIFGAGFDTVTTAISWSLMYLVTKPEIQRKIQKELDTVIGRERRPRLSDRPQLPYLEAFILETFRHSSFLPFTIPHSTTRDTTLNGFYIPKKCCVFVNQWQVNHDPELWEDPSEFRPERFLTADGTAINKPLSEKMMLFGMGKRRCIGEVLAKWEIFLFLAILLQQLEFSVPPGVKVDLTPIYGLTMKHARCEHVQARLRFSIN

[3] = NIH3T3 cell viability loss – ATP luminescence, mouse fibroblasts, counter-screen, dose response (AID 2010); assay type: functional, cell-based;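 note: cells exposed to compound for about 90 hours before reading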
[4] = molecular target: T2, Replicative DNA helicase DnaB (Mycobacterium tuberculosis, UniProt P9WMR3); assay: DnaB intein splicing inhibitors, dose response, biochemical, cell-free fluorescence (AID 449749); assay type: functional
T2 sequence (P9WMR3 whole entry): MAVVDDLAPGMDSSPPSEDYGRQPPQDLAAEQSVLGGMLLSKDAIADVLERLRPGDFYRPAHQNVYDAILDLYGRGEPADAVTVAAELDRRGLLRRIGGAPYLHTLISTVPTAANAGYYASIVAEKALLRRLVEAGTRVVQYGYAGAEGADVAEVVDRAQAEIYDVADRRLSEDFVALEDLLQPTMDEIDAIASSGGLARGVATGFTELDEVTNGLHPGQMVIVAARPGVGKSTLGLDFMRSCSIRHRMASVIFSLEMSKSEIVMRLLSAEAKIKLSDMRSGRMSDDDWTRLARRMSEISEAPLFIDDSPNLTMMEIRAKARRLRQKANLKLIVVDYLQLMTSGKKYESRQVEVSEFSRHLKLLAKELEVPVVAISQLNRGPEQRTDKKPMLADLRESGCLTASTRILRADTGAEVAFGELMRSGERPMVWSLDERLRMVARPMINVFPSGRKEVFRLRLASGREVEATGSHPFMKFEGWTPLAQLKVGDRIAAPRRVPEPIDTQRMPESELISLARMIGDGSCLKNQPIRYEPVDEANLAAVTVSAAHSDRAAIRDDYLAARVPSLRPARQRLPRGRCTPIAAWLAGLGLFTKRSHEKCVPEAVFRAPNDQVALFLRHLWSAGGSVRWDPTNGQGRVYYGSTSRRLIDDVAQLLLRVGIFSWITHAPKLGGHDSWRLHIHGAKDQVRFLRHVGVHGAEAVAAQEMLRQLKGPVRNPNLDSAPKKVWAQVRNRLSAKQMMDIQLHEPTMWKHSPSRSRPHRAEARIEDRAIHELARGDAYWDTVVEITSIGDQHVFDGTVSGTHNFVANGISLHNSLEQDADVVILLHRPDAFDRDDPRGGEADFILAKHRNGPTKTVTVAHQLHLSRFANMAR

Protein RecA = molecular target: T3, Protein RecA (Mycobacterium tuberculosis, UniProt P9WHJ3); assay: Fluorescence Cell-Free Homogeneous Dose Retest to Identify Inhibitors of RecA-Intein Splicing Activity. [Related pubchem assays (depositor defined):AID2097, AID2223, AID489010, AID492950]; assay type: functional
T3 sequence (P9WHJ3 whole entry): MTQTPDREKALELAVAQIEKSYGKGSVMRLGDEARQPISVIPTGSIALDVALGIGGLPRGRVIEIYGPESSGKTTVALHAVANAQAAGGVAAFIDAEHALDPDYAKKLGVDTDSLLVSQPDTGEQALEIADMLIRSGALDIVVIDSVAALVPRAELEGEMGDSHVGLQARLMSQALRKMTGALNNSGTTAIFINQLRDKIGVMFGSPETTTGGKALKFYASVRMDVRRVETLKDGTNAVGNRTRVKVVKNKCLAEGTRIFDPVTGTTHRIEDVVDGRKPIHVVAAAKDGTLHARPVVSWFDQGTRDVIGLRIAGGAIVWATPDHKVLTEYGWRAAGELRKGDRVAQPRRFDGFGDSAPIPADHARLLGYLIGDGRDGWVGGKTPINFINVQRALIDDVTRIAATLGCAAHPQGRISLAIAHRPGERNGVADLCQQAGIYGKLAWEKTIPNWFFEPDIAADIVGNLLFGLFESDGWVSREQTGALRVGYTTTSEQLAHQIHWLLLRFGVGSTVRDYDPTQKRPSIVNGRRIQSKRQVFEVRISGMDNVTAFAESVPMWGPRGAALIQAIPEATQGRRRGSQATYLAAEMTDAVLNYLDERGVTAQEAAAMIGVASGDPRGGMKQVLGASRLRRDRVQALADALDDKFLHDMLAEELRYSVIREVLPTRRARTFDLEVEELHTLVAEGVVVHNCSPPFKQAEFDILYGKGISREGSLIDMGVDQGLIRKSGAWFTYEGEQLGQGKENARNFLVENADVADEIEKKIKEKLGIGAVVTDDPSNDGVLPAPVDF

[5] = molecular target: T4, Rac GTPase-activating protein 1 (Homo sapiens, UniProt Q9H0H5); assay: blockers of MgcRacGAP-driven Rac1 GTP hydrolysis – biochemical, ADP Hunter fluorescence, primary and confirmatory, confirmation (AID 624330); assay type: functional
T4 sequence (Q9H0H5 whole entry): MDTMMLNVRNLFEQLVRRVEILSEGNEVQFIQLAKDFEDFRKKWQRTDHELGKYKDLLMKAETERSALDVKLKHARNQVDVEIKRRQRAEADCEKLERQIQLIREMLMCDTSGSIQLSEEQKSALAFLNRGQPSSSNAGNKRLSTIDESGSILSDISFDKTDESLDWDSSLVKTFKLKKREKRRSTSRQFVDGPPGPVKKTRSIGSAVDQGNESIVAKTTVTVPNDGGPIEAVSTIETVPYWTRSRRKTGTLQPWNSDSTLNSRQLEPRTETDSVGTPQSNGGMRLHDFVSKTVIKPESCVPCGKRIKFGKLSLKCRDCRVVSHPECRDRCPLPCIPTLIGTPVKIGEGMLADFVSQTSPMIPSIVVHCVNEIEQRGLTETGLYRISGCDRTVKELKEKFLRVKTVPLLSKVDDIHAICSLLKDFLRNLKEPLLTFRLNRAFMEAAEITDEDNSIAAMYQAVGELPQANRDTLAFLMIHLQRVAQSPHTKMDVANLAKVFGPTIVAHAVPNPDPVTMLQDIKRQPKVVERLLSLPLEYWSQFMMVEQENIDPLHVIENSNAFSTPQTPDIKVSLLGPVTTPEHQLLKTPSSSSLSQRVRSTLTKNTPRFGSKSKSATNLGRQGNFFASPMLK

Chain of Cytochrome P450 2C9 (P11712 whole entry): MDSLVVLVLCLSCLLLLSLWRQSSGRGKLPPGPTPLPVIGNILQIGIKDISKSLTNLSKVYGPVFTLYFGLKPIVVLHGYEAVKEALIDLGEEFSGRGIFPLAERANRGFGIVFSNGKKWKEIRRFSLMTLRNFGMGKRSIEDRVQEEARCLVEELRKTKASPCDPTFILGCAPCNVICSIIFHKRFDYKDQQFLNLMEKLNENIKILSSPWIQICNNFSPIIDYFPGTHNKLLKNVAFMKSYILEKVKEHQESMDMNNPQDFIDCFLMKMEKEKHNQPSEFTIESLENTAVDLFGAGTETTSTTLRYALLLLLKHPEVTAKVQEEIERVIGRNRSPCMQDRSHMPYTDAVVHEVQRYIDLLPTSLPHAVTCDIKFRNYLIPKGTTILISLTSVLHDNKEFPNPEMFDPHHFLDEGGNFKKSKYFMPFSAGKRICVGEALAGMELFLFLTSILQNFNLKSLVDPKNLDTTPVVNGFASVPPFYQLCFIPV
Chain of Cytochrome P450 2D6 (P10635 whole entry): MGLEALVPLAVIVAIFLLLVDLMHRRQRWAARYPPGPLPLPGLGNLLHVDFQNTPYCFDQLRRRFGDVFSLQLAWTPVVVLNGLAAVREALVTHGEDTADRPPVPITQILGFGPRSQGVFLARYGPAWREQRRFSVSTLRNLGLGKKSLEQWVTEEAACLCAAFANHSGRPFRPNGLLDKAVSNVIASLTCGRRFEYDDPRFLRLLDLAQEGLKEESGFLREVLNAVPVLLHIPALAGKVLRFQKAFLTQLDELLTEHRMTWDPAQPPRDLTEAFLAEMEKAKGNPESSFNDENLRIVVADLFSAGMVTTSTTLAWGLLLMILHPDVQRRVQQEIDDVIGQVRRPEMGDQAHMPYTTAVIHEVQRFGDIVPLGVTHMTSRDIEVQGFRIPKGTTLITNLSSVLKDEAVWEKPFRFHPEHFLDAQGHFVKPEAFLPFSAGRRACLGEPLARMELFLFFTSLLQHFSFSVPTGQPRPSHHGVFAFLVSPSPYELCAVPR
Chain of Genome polyprotein (P29990 2492-3391 limits assumed): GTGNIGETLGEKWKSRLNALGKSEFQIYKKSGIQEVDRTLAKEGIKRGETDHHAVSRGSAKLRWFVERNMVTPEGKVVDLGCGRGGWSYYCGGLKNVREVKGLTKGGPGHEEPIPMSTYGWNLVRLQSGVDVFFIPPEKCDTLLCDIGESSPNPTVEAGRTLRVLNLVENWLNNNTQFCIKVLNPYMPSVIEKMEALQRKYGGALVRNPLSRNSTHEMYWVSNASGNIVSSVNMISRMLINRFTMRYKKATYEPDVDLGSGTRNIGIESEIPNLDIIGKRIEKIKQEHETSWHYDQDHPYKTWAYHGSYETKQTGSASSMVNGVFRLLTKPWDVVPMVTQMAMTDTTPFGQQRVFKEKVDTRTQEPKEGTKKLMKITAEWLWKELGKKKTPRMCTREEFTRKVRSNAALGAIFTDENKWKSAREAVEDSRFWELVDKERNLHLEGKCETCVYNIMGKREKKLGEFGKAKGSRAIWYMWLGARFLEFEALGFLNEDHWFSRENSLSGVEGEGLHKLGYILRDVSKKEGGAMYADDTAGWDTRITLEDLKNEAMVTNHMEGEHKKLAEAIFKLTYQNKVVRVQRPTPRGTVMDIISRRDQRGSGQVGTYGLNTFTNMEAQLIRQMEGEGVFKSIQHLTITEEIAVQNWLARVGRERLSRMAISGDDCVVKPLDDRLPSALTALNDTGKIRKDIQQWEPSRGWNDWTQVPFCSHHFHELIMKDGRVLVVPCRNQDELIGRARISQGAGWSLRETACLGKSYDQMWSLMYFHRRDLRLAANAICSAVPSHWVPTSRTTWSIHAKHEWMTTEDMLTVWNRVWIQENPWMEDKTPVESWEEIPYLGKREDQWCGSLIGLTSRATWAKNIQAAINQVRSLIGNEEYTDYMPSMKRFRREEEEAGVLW
Chain of Cytochrome P450 3A4 (P08684 whole entry): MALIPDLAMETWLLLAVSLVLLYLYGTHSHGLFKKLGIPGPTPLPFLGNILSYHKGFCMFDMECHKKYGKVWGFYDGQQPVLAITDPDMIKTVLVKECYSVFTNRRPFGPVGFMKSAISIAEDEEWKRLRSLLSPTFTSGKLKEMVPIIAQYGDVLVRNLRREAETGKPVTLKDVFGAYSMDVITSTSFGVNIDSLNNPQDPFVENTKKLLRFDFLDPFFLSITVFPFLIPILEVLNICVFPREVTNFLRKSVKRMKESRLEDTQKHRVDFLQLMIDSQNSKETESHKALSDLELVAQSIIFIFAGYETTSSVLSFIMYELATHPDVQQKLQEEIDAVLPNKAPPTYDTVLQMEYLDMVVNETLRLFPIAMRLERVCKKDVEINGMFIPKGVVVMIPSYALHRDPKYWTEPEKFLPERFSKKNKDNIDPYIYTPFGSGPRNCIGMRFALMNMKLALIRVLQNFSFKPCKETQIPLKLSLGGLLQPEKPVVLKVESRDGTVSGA

In the case of `CC(=C\c1ccccc1)/C=C1/SC(=S)N(C(C(=O)O)C(C)C)C1=O` (centres undefined), the IC50 (Genome polyprotein) is reported as 34.1 µM (active).
With `CCCCn1nnnc1SCC(=O)c1cc(Cl)ccc1OC` the AC50 (Cytochrome P450 2D6) was 22.4 µM (inconclusive), the AC50 (Cytochrome P450 3A4) was 14.1 µM (inconclusive) and the AC50 (Cytochrome P450 2C9) was “inconclusive”.
For `CNC[C@H](CC1CCCCC1)NC[C@H](NCCC1CCCC1)[C@H](C)O`, the CC50 (Vero) was > 25 µM (active).
In the case of `CC(=O)Nc1ccc(S(=O)(=O)Nc2cccc(-c3nc4cc(C)ccc4o3)c2)cc1`, the CC50 [1] is reported as 9.33 µM (active) and the CC50 (Vero) is reported as > 25 µM (active).
In the case of `CC1=C(C(=O)Nc2ccccc2F)C(c2ccsc2)C2=C(O)CC(c3ccccc3)CC2=N1` (centres undefined), the EC50 [2] is reported as 3.32 µM (active), the AC50 (Cytochrome P450 1A2) is reported as 11.2 µM (inconclusive) and the EC50 [3] is reported as 8.96 µM (active). For the same compound, the AC50 (Cytochrome P450 2C9) was “inconclusive”.
For `CCCSc1nc(C)cc(C)c1S(=O)(=O)c1ccccc1C`, the AC50 (Cytochrome P450 2D6) was 39.8 µM (inconclusive), the AC50 (Cytochrome P450 1A2) was 11.2 µM (inconclusive) and the AC50 (Cytochrome P450 2C9) was “inconclusive”.
With `O=C1NC(=O)C(=Cc2ccccc2Oc2ccc(F)cc2)C(=O)N1` the IC50 (Genome polyprotein) was 37.5 µM (active).
In the case of `Cc1ccc(N2C(=O)NC(=O)/C(=C/c3ccc(OC(=O)c4cccs4)cc3)C2=O)cc1`, the AC50 [4] is reported as 640 nM (active), the EC50 (Protein RecA) is reported as 772 nM (active) and the IC50 (Genome polyprotein) is reported as 55.4 µM (active).
With `CCOc1cc2c(cc1O)C(=NO)CC1C2CCC2(C)C(O)CCC12` (centres undefined) the CC50 (Vero) was 4.99 µM (active).
In the case of `O=C(CS(=O)(=O)c1cccc(Cl)c1)Nc1ccccc1Cl`, the AC50 (Cytochrome P450 2D6) is reported as 17.8 µM (inconclusive), the AC50 (Cytochrome P450 1A2) is reported as 22.4 µM (inconclusive) and the AC50 (Cytochrome P450 2C9) is reported as “inconclusive”.
With `O=C1NN(c2ccccc2)C(=O)C1=Cc1ccccc1O` the IC50 (Genome polyprotein) was 34.6 µM (active) and the IC50 [5] was 81.3 µM (active).
